Source: ChEMBL document CHEMBL4184156, “Repurposing Hsp90 inhibitors as antibiotics targeting histidine kinases” (Bioorg Med Chem Lett, 2017)
Values after ≈ are worked out from the molar mass of the structure shown. Active and inactive are the calls of the source. No cut-off for these calls is given here.

Assays:
[1] = biological target: T1, Virulence sensor histidine kinase PhoQ (Salmonella typhimurium (strain LT2 / SGSC1412 / ATCC 700720)) (UniProt P0DM80); test: (§1) Inhibition of recombinant Salmonella typhimurium N-terminal His6-SUMO-tagged DHp-catalytic domain PhoQ (257 to 487 residues) autophosphorylation expressed in Escherichia coli BL21(DE3) at 500 uM preincubated for 10 mins followed by [gamma-32P]-ATP addition after 30 mins by phosphotransferase dot blot assay relative to control; parameters: scale not given: the % may be the effect or the level left; details: Salmonella enterica subsp. enterica serovar Typhimurium
T1 sequence (whole entry): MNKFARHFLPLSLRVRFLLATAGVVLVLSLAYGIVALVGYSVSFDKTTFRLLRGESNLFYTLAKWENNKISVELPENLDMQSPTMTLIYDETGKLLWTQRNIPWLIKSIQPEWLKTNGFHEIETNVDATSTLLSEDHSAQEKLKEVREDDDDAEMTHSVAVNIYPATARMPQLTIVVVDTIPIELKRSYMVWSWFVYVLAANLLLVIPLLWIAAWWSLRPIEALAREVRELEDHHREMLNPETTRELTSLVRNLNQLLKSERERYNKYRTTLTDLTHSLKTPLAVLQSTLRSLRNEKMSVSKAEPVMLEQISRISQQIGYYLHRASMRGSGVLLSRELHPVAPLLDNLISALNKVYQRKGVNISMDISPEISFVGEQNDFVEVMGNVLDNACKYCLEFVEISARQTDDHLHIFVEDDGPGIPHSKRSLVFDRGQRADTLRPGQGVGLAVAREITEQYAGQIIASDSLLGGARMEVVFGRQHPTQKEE

[2] = biological target: T2, Histidine protein kinase DivJ (Caulobacter vibrioides (strain ATCC 19089 / CB15) (Caulobactercrescentus)) (UniProt Q03228); test: as §1, with “Caulobacter vibrioides” for “Salmonella typhimurium”, “His6-tagged” for “His6-SUMO-tagged”, “DivJ (188” for “PhoQ (257”, “585” for “487”, “15” for “30”; parameters: scale not given: the % may be the effect or the level left
T2 sequence (whole entry): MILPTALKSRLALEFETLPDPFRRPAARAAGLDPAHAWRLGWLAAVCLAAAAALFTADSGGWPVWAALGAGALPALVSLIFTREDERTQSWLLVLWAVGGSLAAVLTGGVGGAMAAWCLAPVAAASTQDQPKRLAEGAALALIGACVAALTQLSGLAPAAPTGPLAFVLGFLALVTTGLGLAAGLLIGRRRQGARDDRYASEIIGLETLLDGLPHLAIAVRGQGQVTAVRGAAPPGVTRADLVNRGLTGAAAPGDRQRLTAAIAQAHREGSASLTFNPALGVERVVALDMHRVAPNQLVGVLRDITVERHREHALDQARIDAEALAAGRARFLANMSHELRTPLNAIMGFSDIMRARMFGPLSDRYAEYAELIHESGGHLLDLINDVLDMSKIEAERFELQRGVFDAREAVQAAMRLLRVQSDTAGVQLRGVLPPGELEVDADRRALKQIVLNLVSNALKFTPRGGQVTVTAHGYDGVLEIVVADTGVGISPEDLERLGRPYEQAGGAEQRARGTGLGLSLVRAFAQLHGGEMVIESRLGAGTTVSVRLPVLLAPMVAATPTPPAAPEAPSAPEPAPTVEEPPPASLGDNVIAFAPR

[3] = Hemolytic activity against sheep RBC at 0.5 mM after 30 mins relative to control; format: ADME, cell-based, Ovis aries, Erythrocyte; details: sheep red blood cells (erythrocytes), read-out: Activity
Escherichia coli = test: Antibacterial activity against Escherichia coli DC2 after 24 hrs by broth dilution method; format: functional; details: DC2, 24 h
Bacillus subtilis = test: Antibacterial activity against Bacillus subtilis YB886 after 24 hrs by broth dilution method; format: functional; details: YB886, 24 h
Caulobacter vibrioides = test: Antibacterial activity against Caulobacter crescentus NA1000 after 24 hrs by broth dilution method; format: functional; details: NA1000, 24 h
[4] = biological target: T3, Cell cycle histidine kinase CckA (Caulobacter vibrioides) (UniProt Q9X688); test: Binding affinity to recombinant Caulobacter vibrioides cell cycle histidine kinase CckA delta 3 mutant DHp domain (190 to 562 residues) expressed in Escherichia coli assessed as change in metlting temperature at 30 uM after 2 mins by SYPRO orange dye based DSF assay
T3 sequence (whole entry): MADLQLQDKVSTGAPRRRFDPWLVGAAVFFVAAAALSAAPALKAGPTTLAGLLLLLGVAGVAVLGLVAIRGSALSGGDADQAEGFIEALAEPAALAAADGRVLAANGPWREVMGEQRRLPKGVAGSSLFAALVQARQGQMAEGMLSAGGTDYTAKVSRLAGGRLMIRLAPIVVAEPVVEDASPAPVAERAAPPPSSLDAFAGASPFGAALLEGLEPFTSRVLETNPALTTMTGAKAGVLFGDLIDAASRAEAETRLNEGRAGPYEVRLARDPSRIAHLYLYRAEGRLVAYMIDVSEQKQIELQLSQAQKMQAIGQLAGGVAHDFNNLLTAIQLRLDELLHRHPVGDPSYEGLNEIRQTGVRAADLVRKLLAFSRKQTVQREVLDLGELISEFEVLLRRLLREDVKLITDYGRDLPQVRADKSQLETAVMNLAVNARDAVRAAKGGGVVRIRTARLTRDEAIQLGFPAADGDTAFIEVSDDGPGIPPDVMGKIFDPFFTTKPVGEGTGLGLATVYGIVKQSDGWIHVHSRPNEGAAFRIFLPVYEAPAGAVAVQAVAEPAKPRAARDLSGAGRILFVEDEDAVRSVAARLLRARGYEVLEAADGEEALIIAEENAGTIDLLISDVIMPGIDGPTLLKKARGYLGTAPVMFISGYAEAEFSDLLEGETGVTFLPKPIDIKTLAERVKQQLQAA

[5] = biological target: Cell cycle histidine kinase CckA (Caulobacter vibrioides, UniProt Q9X688); test: Inhibition of recombinant Caulobacter vibrioides cell cycle histidine kinase CckA deltaTM mutant DHp domain (70 to 691 residues) expressed in Escherichia coli in presence of varying levels of ATP measured every 60 secs for 2 hrs by PK/LDH enzyme coupled assay
[6] = biological target: T4, Virulence sensor histidine kinase PhoQ (Salmonella typhimurium (strain LT2 / SGSC1412 / ATCC 700720), UniProt P0DM80); test: Inhibition of recombinant Salmonella typhimurium N-terminal His6-SUMO-tagged DHp-catalytic domain PhoQ (257 to 487 residues) autophosphorylation expressed in Escherichia coli BL21 (DE3) preincubated for 10 mins followed by [gamma-32P]-ATP addition after 30 mins by phosphotransferase dot blot assay; parameters: species or system Salmonella enterica subsp. enterica serovar Typhimurium
T4 sequence (P0DM80 whole entry): T1 sequence (whole entry)

[7] = biological target: T1, Virulence sensor histidine kinase PhoQ (Salmonella typhimurium (strain LT2 / SGSC1412 / ATCC 700720)); test: as §1, with “BL21 (DE3)” for “BL21(DE3)”, “800” for “500”; parameters: scale not given: the % may be the effect or the level left; details: Salmonella enterica subsp. enterica serovar Typhimurium
[8] = biological target: T1, Virulence sensor histidine kinase PhoQ (Salmonella typhimurium (strain LT2 / SGSC1412 / ATCC 700720)); test: Inhibition of recombinant Salmonella typhimurium N-terminal His6-SUMO-tagged PhoQ (257 to 487 residues) expressed in Escherichia coli BL21 (DE3) assessed as enzyme aggregation at 400 uM after 30 mins by native-PAGE analysis; details: Salmonella enterica subsp. enterica serovar Typhimurium
[9] = biological target: T3, Cell cycle histidine kinase CckA (Caulobacter vibrioides); test: Inhibition of recombinant Caulobacter vibrioides cell cycle histidine kinase CckA deltaTM mutant DHp domain (70 to 691 residues) expressed in Escherichia coli at 250 uM in presence of varying levels of ATP measured every 60 secs for 2 hrs by PK/LDH enzyme coupled assay relative to control
[10] = tested on: Staphylococcus epidermidis; test: Antimicrobial activity against Staphylococcus epidermidis ATCC 35984 after 10 hrs; format: functional; details: ATCC 35984, 10 h

## CCc1cc(-c2n[nH]c(C)c2-c2ccc(OC)cc2)c(O)cc1O
[1]
  Activity: 36%
[2]
  Activity: 118%
[3]
  hemolysis at 0.5 h, 500 µM: 15%
Escherichia coli
  MIC: 75 µM (≈ 24.3 µg/mL)
Bacillus subtilis
  MIC: 112 µM (≈ 36.5 µg/mL)
Caulobacter vibrioides
  MIC: 225 µM (≈ 73 µg/mL)
[4]
  ΔTm: 4.1 °C
[5]
  IC50: 18.6 µM

## CCc1cc(-c2n[nH]c(C)c2-c2ccc3c(c2)OCCO3)c(O)cc1O
[6]
  IC50: 261 µM
[3]
  hemolysis at 0.5 h, 500 µM: 14%
[5]
  IC50: 28 to 30 µM

## CCNC(=O)c1noc(-c2cc(C(C)C)c(O)cc2O)c1-c1ccc(CN2CCOCC2)cc1 [LUMINESPIB]
[1]
  Activity: 73%
[2]
  Activity: 109%
[7]
  Activity: 56%
[8]
  inhibition: inactive
[3]
  hemolysis at 0.5 h, 500 µM: 1%
Escherichia coli
  MIC: 37.5 to 75 µM (≈ 17.5 to 34.9 µg/mL)
Bacillus subtilis
  MIC: > 300 µM
Caulobacter vibrioides
  MIC: > 300 µM
[4]
  ΔTm: 1.8 °C
[5]
  IC50: 7.3 to 28 µM

## COc1c(C)cnc(Cn2cnc3c(Cl)nc(N)nc32)c1C [BIIB021]
[1]
  Activity: 87%
[2]
  Activity: 128%
[3]
  hemolysis at 0.5 h, 500 µM: 6%
Escherichia coli
  MIC: > 300 µM
Bacillus subtilis
  MIC: > 300 µM
Caulobacter vibrioides
  MIC: > 300 µM
[4]
  ΔTm: 0.7 °C
[9]
  inhibition: 87%

## COc1ccc(-c2c[nH]nc2-c2cc(Cl)c(O)cc2O)cc1
[1]
  Activity: 62%
[2]
  Activity: 112%
[3]
  hemolysis at 0.5 h, 500 µM: 0%
Escherichia coli
  MIC: 37.5 µM (≈ 11.9 µg/mL)
Bacillus subtilis
  MIC: 150 µM (≈ 47.5 µg/mL)
Caulobacter vibrioides
  MIC: 225 µM (≈ 71.3 µg/mL)
[4]
  ΔTm: 4.2 °C
[5]
  IC50: 32.7 µM

## COc1ccc(-c2c[nH]nc2-c2ccc(O)cc2O)cc1
[1]
  Activity: 87%
[2]
  Activity: 85%
[3]
  hemolysis at 0.5 h, 500 µM: 3%
Escherichia coli
  MIC: 37.5 to 112 µM (≈ 10.6 to 31.8 µg/mL)
Bacillus subtilis
  MIC: > 300 µM
Caulobacter vibrioides
  MIC: > 300 µM
[4]
  ΔTm: 3.5 °C
[5]
  IC50: 56.9 µM

## O=C(O)c1ccc(-c2ccc(/C=C3\S/C(=N\c4ccccc4)N(c4ccc(F)cc4)C3=O)s2)cc1
[10]
  MIC: 0.75 µg/mL (≈ 1.5 µM)

## Cc1[nH]nc(-c2cc(Cl)c(O)cc2O)c1-c1ccccc1
[3]
  hemolysis at 0.5 h, 500 µM: 1%
[5]
  IC50: 17.5 µM

## Oc1cc(O)c(-c2n[nH]cc2-c2ccccc2)cc1Cl
[1]
  Activity: 63%
[2]
  Activity: 92%
[3]
  hemolysis at 0.5 h, 500 µM: 0%
Escherichia coli
  MIC: 37.5 µM (≈ 10.8 µg/mL)
Bacillus subtilis
  MIC: 225 µM (≈ 64.5 µg/mL)
Caulobacter vibrioides
  MIC: 150 to 225 µM (≈ 43 to 64.5 µg/mL)
[4]
  ΔTm: 3.5 °C
[5]
  IC50: 33.6 µM
